The results in this text go back to patent US11512090B2, “Muscarinic acetylcholine M1 receptor antagonists” (PIPELINE THERAPEUTICS, INC., priority 2018, dated 2022).

Assay type in all cases: cell-based
The target in one test is T1, human M1 receptor (Homo sapiens, UniProt P11229).
T1 sequence (P11229 1-460): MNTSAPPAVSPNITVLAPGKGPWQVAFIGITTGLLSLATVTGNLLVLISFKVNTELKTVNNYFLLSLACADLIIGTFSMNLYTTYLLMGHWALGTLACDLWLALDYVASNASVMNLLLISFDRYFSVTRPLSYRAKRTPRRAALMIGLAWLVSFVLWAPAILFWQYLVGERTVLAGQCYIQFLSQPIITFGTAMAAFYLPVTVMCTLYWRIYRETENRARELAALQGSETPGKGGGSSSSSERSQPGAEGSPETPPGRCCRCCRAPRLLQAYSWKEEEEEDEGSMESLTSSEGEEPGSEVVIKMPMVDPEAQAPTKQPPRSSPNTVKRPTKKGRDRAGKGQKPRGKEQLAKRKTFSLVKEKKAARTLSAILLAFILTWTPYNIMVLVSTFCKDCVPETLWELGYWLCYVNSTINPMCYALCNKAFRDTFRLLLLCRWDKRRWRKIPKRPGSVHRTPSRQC
The test is described as follows: In vitro functional assay of muscarinic acetylcholine receptor activity (aequorin calcium flux, antagonist mode vs EC80 acetylcholine), M1. As to the method:
(§1) CHO-K1 cells stably expressing human M1 receptor with Aequorin (Perkin Elmer) were grown in F12 media, 10% FBS with 0.4 mg/mL geneticin and […]. Cells were grown to confluence and frozen down to be assayed at a later date. On the day of the experiment cells were thawed in a 37° C. water bath, resuspended in DMEM/HAM's F12 with HEPES (Invitrogen)+0.1% protease-free BSA (assay buffer), and spun down to remove freezing media. After centrifugation, supernatant was removed and 12 mL of assay buffer was added. Coelenterazine h (Promega) was added to the cells at a final concentration of 5 uM and incubated for 4 hours at room temperature in the dark. Compound master plate-96 deep well (Corning) were formatted in a 8-point DRC in assay buffer with 0.2% DMSO at a starting concentration of 60 uM (2×). After 4 hours of incubation, cells were plated at a concentration of 5×10^5 cells/well in 96 well white-walled, tissue culture-treated, clear-bottom plates (VWR). Compounds were added to the daughter plate, and cells plus compound were incubated at room temperature for 30 minutes in the dark.
(§2) Calcium flux was measured using the FlexStation 3 (Molecular Devices). To measure the antagonist dose-response, the EC80 of Acetylcholine was injected to the daughter plate using the automated compound transfer function of the Flex Station, and the increase in luminescence was measured over time. Antagonist activity was analyzed as a concentration dependent decrease in the EC80 acetylcholine response. Dose response curves were generated using Prism (GraphPad Software). The IC50 of the compounds was calculated from the dose response curve.

A further test addresses T2, M2 (Homo sapiens, UniProt P08172).
T2 sequence (P08172 1-466): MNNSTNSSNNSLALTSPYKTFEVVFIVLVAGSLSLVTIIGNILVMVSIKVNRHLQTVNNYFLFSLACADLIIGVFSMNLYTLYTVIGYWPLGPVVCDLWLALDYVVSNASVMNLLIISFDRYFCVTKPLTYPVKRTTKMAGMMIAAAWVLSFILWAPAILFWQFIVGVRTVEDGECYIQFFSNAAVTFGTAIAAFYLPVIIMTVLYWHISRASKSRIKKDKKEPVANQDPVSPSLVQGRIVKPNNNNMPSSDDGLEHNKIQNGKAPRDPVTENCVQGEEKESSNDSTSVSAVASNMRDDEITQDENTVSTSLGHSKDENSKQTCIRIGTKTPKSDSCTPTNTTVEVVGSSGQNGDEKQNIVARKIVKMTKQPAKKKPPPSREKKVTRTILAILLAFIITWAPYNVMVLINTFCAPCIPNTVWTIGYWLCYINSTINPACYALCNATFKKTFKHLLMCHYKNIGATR
Put plainly: In vitro functional assay of muscarinic acetylcholine receptor activity, M2. As to the method:
[The procedure below names another target; the source lists this target under the same test.] as §1, §2

Another test has as its target M3 (Homo sapiens, UniProt P20309). The test is described as follows: In vitro functional assay of muscarinic acetylcholine receptor activity, M3. The conditions noted are these: antagonist IC50 at M3; read-out: M3 IC50. The procedure:
[The procedure below names another target; the source lists this target under the same test.] as §1, §2

Setting [1] is: antagonist IC50 at M2, read-out: M2 IC50.
The mark [2] stands for this setting: CHO-K1 cells stably expressing human M1 receptor with Aequorin, decrease in EC80 acetylcholine response, read-out: M1 IC50.

Read-outs that look alike come from different tables or passages of the source.

Chain of M3 (P20309 whole entry): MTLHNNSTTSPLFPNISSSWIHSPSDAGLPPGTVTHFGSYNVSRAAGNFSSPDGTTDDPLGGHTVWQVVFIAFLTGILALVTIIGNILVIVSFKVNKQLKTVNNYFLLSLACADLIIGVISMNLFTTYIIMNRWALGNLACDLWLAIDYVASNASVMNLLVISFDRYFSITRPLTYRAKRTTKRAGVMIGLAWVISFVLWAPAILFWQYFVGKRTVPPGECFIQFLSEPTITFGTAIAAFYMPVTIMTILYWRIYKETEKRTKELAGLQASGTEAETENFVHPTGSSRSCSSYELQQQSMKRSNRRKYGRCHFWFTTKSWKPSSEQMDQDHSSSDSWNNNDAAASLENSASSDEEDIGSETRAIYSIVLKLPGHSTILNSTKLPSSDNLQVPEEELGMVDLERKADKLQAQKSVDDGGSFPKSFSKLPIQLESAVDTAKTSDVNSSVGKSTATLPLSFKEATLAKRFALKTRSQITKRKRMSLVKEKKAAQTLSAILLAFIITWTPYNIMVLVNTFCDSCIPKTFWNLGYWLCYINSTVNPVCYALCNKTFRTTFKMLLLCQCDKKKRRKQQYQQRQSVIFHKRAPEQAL

`O=C(COCc1cccc2ncccc12)N1C[C@H]2CC[C@@H](C1)N2c1ccc(F)cn1` [Example 1, 1-((1R,5S)-8-(5-fluoropyridin-2-yl)-3,8-diazabicyclo[3.2.1]octan-3-yl)-2-(quinolin-5-ylmethoxy)ethan-1-one]: the IC50 at human M1 receptor was less than 0.1 µM; on M2 (setting [1]), 1 to 10 µM; on M3 it was greater than 10 µM.
As for `O=C(CC1CN(c2cccc3ncccc23)C1)N1C[C@H]2CC[C@@H](C1)N2c1ccc(F)cn1` [Example 2, 1-((1R,5S)-8-(5-fluoropyridin-2-yl)-3,8-diazabicyclo[3.2.1]octan-3-yl)-2-(1-(quinolin-5-yl)azetidin-3-yl)ethan-1-one], the 50% inhibitory concentration (IC50) at human M1 receptor (setting [2]) was 1 to 10 µM; on M2 (setting [1]), 1 to 10 µM; on M3, greater than 10 µM.
With `O=C(N1CC(Oc2cccc3cnccc23)C1)N1C[C@H]2CC[C@@H](C1)N2c1ccc(F)cn1` [Example 3, ((1R,5S)-8-(5-fluoropyridin-2-yl)-3,8-diazabicyclo[3.2.1]octan-3-yl)(3-(isoquinolin-5-yloxy)azetidin-1-yl)methanone], the 50% inhibitory concentration (IC50) was greater than 10 µM at human M1 receptor (setting [2]), 0.1 to 1 µM at M2 and 1 to 10 µM at M3.
`O=C(CCCc1cccc2ncccc12)N1CCN(c2ccncc2)CC1` [Example 4, 1-(4-(pyridin-4-yl)piperazin-1-yl)-4-(quinolin-5-yl)butan-1-one]: the results for the IC50 on human M1 receptor (setting [2]), on M2 (setting [1]) and at M3 were less than 0.1 µM, 1 to 10 µM and 1 to 10 µM, respectively.
As for `CC1CN(c2ccc(F)cn2)CCN1C(=O)[C@H]1C[C@H](Oc2cccc3ncsc23)C1` (stereo partly drawn) [Example 5, ((1R,3R)-3-(benzo[d]thiazol-7-yloxy)cyclobutyl)(4-(5-fluoropyridin-2-yl)-2-methylpiperazin-1-yl)methanone], the 50% inhibitory concentration (IC50) on human M1 receptor (setting [2]), on M2 (setting [1]) and on M3 was greater than 10 µM in each case.
On to `O=C(C1CN(Cc2cccc3ncsc23)C1)N1C[C@H]2CC[C@@H](C1)N2c1ccncc1F` [Example 7], for which the 50% inhibitory concentration (IC50) is 1 to 10 µM at human M1 receptor (setting [2]), greater than 10 µM on M2 (setting [1]) and greater than 10 µM at M3.
In the case of `O=C(CCNCc1cccc2ncsc12)N1C[C@H]2CC[C@@H](C1)N2c1ccncc1F` [Example 8, 3-((benzo[d]thiazol-7-ylmethyl)amino)-1-((1R,5S)-8-(3-fluoropyridin-4-yl)-3,8-diazabicyclo[3.2.1]octan-3-yl)propan-1-one], the IC50 is less than 0.1 µM at human M1 receptor, 1 to 10 µM at M2 (setting [1]) and 1 to 10 µM at M3.
`O=C(C1CC1COc1cccc2ncsc12)N1C[C@H]2CC[C@@H](C1)N2c1ccncc1F` (stereo partly drawn) [Example 9, (2-((benzo[d]thiazol-7-yloxy)methyl)-cyclopropyl)((1R,5S)-8-(3-fluoropyridin-4-yl)-3,8-diazabicyclo[3.2.1]octan-3-yl)methanone]: the IC50 was greater than 10 µM on human M1 receptor (setting [2]), 1 to 10 µM at M2 (setting [1]) and 1 to 10 µM on M3.
`O=C(CCNCc1cccc2ncccc12)N1C[C@H]2CC[C@@H](C1)N2c1ccncc1F` [Example 10, 1-((1R,5S)-8-(3-fluoropyridin-4-yl)-3,8-diazabicyclo[3.2.1]octan-3-yl)-3-((quinolin-5-ylmethyl)amino)propan-1-one]: the IC50 at human M1 receptor (setting [2]) was 1 to 10 µM; on M2 (setting [1]), greater than 10 µM; on M3, greater than 10 µM.
On to `O=C(COCCc1cccc2ncccc12)N1C[C@H]2CC[C@@H](C1)N2c1ccncc1F` [Example 11, 1-((1R,5S)-8-(3-fluoropyridin-4-yl)-3,8-diazabicyclo-[3.2.1]octan-3-yl)-2-(2-(quinolin-5-yl)ethoxy)ethan-1-one], for which the IC50 was 0.1 to 1 µM on human M1 receptor, 1 to 10 µM on M2 (setting [1]) and greater than 10 µM at M3.
Consider `O=C(CCOCc1cccc2nccn12)N1C[C@H]2CC[C@@H](C1)N2c1ccncc1F` [Example 12, 1-((1R,5S)-8-(3-fluoropyridin-4-yl)-3,8-diazabicyclo[3.2.1]octan-3-yl)-3-(imidazo[1,2-a]pyridin-5-ylmethoxy)propan-1-one], for which the 50% inhibitory concentration (IC50) at human M1 receptor was 0.1 to 1 µM; at M2 (setting [1]) it was 1 to 10 µM; at M3 it was greater than 10 µM.
Take `Cc1cc(F)cnc1N1CCN(C(=O)CNCc2cccc3ncccc23)[C@@H](C)C1` [Example 13, 1-[(2S)-4-(5-fluoro-3-methylpyridin-2-yl)-2-methylpiperazin-1-yl]-2-[[(quinolin-5-yl)methyl]amino]ethanone]: the 50% inhibitory concentration (IC50) at human M1 receptor (setting [2]) lay within 0.1 to 1 µM; on M2 (setting [1]), 1 to 10 µM; at M3, 1 to 10 µM.
Consider `O=C(CCNCc1cccc2nccn12)N1CC2CCC(C1)N2c1ccncc1F` [Example 14, 1-[8-(3-fluoropyridin-4-yl)-3,8-diazabicyclo[3.2.1]octan-3-yl]-3-[([imidazo[1,2-a]pyridin-5-yl]methyl)amino]propan-1-one], for which the figures for the half-inhibitory concentration (IC50) on human M1 receptor, at M2 (setting [1]) and on M3 were 0.1 to 1 µM, greater than 10 µM and greater than 10 µM, respectively.
Regarding `O=C(CNCCc1cccc2ncsc12)N1CC2CCC(C1)N2c1ccncc1F` [Example 15, 2-[[2-(1,3-benzothiazol-7-yl)ethyl]amino]-1-[8-(3-fluoropyridin-4-yl)-3,8-diazabicyclo[3.2.1]octan-3-yl]ethan-1-one], the IC50 was 0.1 to 1 µM on human M1 receptor, 1 to 10 µM on M2 (setting [1]) and greater than 10 µM at M3.
As to `O=C(CCS(=O)(=O)c1cccc2ncsc12)N1CCN(c2ccncc2F)CC1` [Example 16, 3-(benzo[d]thiazol-7-ylsulfonyl)-1-(4-(3-fluoropyridin-4-yl)piperazin-1-yl)propan-1-one], the results for the half-maximal inhibitory concentration (IC50) at human M1 receptor (setting [2]), at M2 (setting [1]) and on M3 were 0.1 to 1 µM, 1 to 10 µM and greater than 10 µM, respectively.
The matching figures for `COc1cnc2cccc(S(=O)(=O)CCCC(=O)N3CCN(c4ncc(F)cc4C)C[C@@H]3C)c2c1` [Example 17, (S)-1-(4-(5-fluoro-3-methylpyridin-2-yl)-2-methylpiperazin-1-yl)-4-((3-methoxyquinolin-5-yl)sulfonyl)butan-1-one]: 0.1 to 1 µM, 0.1 to 1 µM and 1 to 10 µM.
In the case of `Cc1cc(F)cnc1N1CCN(C(=O)CCS(=O)(=O)c2cccc3ncsc23)[C@@H](C)C1` [Example 18, 3-(1,3-benzothiazole-7-sulfonyl)-1-[(2S)-4-(5-fluoro-3-methylpyridin-2-yl)-2-methylpiperazin-1-yl]propan-1-one], the IC50 at human M1 receptor (setting [2]) was less than 0.1 µM; on M2 (setting [1]), 1 to 10 µM; on M3 it was 1 to 10 µM.
As to `C[C@@H]1CN(c2ccncc2Cl)CCN1C(=O)CCS(=O)(=O)c1cccc2ncsc12` [Example 19, 3-(1,3-benzothiazole-7-sulfonyl)-1-[(2R)-4-(3-chloropyridin-4-yl)-2-methylpiperazin-1-yl]propan-1-one], the results for the IC50 at human M1 receptor (setting [2]), at M2 (setting [1]) and on M3 were less than 0.1 µM, 0.1 to 1 µM and greater than 10 µM, respectively.
The like results for `C[C@H]1CN(c2ccnc(N)c2)CCN1C(=O)CCS(=O)(=O)c1cccc2ncsc12` [Example 21, (S)-1-(4-(2-aminopyridin-4-yl)-2-methylpiperazin-1-yl)-3-(benzo[d]thiazol-7-ylsulfonyl)propan-1-one] were, in that order, less than 0.1 µM, 0.1 to 1 µM and 1 to 10 µM.
The like results for `O=C(CCS(=O)(=O)c1cccc2ncsc12)N1CCC(c2ccc(C(F)(F)F)cn2)CC1` [Example 22, 3-(1,3-benzothiazole-7-sulfonyl)-1-[4-[5-(trifluoromethyl)pyridin-2-yl]piperidin-1-yl]propan-1-one] were, in that order, 0.1 to 1 µM, 1 to 10 µM and 1 to 10 µM.
